Key:
ORF2p core [1] = molecular target: T1, ORF2p core (Homo sapiens, UniProt O00370); experiment: Homogeneous time-resolved fluorescence (HTRF) ORF2p RT assay; type: biochemical; conditions: HTRF; NRTI NTPs
T1 construct: His6-MBP-3C-ORF2p (238-1061, ORFeus-Hs) in pET41; His6-MBP (3C protease site) (N, cleaved yes); made in house; host or cells: E. coli
Method: (§1) ORF2p core was preincubated with a template:primer containing a single site for the incorporation of a given nucleotide analogue. The primer/template sequence shown in the panel a illustrates the case of single incorporation of 3TC, with a single G for incorporation; the incoming template sequence for entecavir and carbovir has a single C, and for d4T a single A, each at position labeled “N”. Reactions were incubated for one minute at 37 °C with a 100 nM dNTP mixture and increasing concentrations of listed inhibitors. IC50 index, fold = IC50 (drug, µM) ÷ [dNTP] […] Fluorescein-labeled dNTPs (here, uracil-TP) are incorporated by ORF2p into a biotinylated primer, here shown against a poly(A) template. Detection is then achieved using FRET with a terbium cryptate labeled streptavidin, and the time-resolved technique and time-delayed emission from terbium cryptate reduces background from other fluorescent chemicals in the mix. In the presence of ORF2p RT inhibitors (RTIs), base incorporation is stopped and FRET signal is lost. […]
(§2) ORF2p reverse transcriptase activity assays […]
For HTRF RT assays157, 25 nM ORF2p core and 12. 5 nM t em plat e: primer was incubated at 25°C for 60 minutes
with 10 nM of fluorescein- 12- dUTP (Thermo), 1 µM each (dATP,dCTP,dGTP), and test compound in a 15 µL
reaction with buffer containing 50 mM Tris-HCl, 50 mM KCl, 10 mM MgCl2, 10 mM DTT, pH 8.1, and 1% final

[2] = system: interferon production in THP1 cells; experiment: Interferon reporter assay in THP1 cells (secreted luciferase); type: cell-based, human; conditions: 50 µM; THP1 cells, 1 µM decitabine
Method: Culture Collection ( AT CC); THP1-Dual and THP1- Dual KO-TREX1 cells were from InvivoGen. All cell lines were maintained at 37 °C and 5% CO2 and validated and tested for mycoplasma. All plasmids and affinity reagents are described in Supplementary Tables 4-5 , respectively and available from Addgene at https://www.addgene.org/browse/article/28243724/. […]
Interferon reporter assay in THP1 cells
The type I interferon response was evaluated using THP1 -Dual and THP1-Dual KO-TREX1 cells (InvivoGen), which secrete a Lucia luciferase reporter gene under control of an interferon- responsive promoter. THP1-Dual KO-TREX1 cell were generated by stable biallelic knock-out of the TREX1 gene. Cell were treated with a dose titration of test compound in the presence of 1 µM 5- aza-2ʹ-deoxycytidine (decitabine, Sigma, #189825), which de- represses LINE-1121. Type 1 Interferon and cell viability were assessed after five days of treatment. QUANTI-LUC solution containing stabilizer was added to the cell supernatant and luminescence was measured on a p la t e reader, and cells were assessed for cell viability using CellTiter-Glo (Promega, #G9683) according to the manufacturer’s instructions.
LINE-1 dual luciferase retrotransposition assay
To assess the potency of inhibiting LINE-1 retrotransposon, a stable clonal dual luciferase L1 reporter cell line was generated and reported as described130,133 in the HeLa Tet-On 3G cell line (Takara, ). SB100x161 was used to integrate pRT006.2, a vector similar to pYX056 130 , which contains a bi-directional Tet-On promoter expressing both control Renilla luciferase and LINE-1 ORFeus-Hs Firefly luciferase antisense intron (AI) r epor t er 79,162. A single cell clone was selected with the highest doxycycline-induced luciferase signal vs baseline. Cells were mixed with compounds and induced for reporter expression with 500 ng/mL doxycycline (Sigma, #D9891) for 72 hours. Luminescence was measured using the Dual-Glo Luciferase Assay System (Promega, #E2940) following the manufacturer’s instructions, and the ratio of Firefly to Renilla Luciferase activity was used to measure […]
Telomerase activity assay
The human telomerase assay was performed with telomerase in MCF- 7 cell lysates using the Telo TAGGG Telomerase PCR ELISAplus kit (Roche). Test compounds (NTPs) were serially diluted in water, mixed with 0.2 µg of M CF- 7 lysate, and pre- incubated at room temperature for 15 minutes. Then the reaction was carried out for 30 minutes, amplified using PCR, and visualized colorimetrically per t he manufacturer’s instructions.
Cells were lysed in ice cold RIPA buffer containing 1x protease inhibitor tablet (Thermo), centrifuged for 10 minutes, and clarified lysates were quantified by BCA assay. […]

ORF2p core [3] = molecular target: T1, ORF2p core; experiment: Gel-based L1 RT assay, ORF2p core, inhibition by NRTI triphosphates; type: biochemical; conditions: 100 nM dNTP mixture
Method: as §1, §2
Gel-based RT activity assays consisted of pr e-incubating RTs with annealed DNA/RNA, DNA/DNA, or RNA/RNA 5’- end- radiolabeled or 5’-end-Cy5- o r FAM-labeled template:primer duplex or hybrid duplex and, where indicated, inhibitor in the presence of 0.1- 1 μ M dNTP or NTP mixture, 0.25 mM EDTA, 50 mM NaCl, and 25 mM Tris (pH 8) for 10 min at 37°C. Labeled nucleic acids were purchased from Dharmacon or IDT. Unless otherwise indicated, 15 μL reactions were initiated by the addition of 1.3 mM MgCl2, incubated for 10 min at 37 °C, and then stopped by the addition of 15 μL of formamide/EDTA (25 mM) mixture and incubated at 95 °C for 10 min. 3 μL reaction samples were subjected to denaturing 8 M urea 20% PAGE to resolve products followed by signal quantification (ImageQuant 5.2, GE Healthcare Bio- Sciences) through phosphorimaging (Amersham Typhoon 5, Cytivia). Scanned gel images are […]
minor products; original images are provided in an Extended Data file. […]

[4] = system: L1 retrotransposition reporter in HeLa cells; experiment: LINE-1 dual luciferase retrotransposition assay in HeLa cells; type: cell-based, human; conditions: Homo sapiens; HeLa cells, stable dual luciferase L1 reporter, normalized to cell viability; n = 3 wells; read-out: IC50

IC50 (ORF2p core [1]): < 10 nM | IC50 index, fold = IC50 (drug, µM) ÷ [dNTP] (natural counterpart, 0.1 µM) (ORF2p core [3]): 4.1 fold | IC50 (ORF2p core [3]; NTP forms of NRTIs, one minute at 37 °C): 400 to 600 nM
Compound: Cc1cn([C@H]2C=C[C@@H](CO)O2)c(=O)[nH]c1=O [d4T, stavudine]
baseline and decitabine-induced IFN production [2]: reduced | IC50 [4]: 3100 nM
